In experiment [1] the target is T1, Heat shock factor protein 1 (Mus musculus, UniProt P38532).
T1 sequence (P38532 whole entry): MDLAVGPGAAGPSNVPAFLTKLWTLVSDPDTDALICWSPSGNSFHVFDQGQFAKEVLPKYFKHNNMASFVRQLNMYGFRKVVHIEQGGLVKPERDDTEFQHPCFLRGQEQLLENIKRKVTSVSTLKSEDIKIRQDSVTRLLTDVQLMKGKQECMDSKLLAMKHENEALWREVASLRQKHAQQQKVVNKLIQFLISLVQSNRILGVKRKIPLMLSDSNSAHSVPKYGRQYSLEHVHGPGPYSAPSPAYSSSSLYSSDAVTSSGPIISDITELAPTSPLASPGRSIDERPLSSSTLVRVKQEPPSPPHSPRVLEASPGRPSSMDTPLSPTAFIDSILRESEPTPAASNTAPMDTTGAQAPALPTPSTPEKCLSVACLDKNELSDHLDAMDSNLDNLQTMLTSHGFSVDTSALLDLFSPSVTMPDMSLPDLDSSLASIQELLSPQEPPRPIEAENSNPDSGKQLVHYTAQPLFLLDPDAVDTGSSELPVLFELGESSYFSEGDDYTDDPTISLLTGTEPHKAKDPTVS
The experiment is described as follows: inhibition of MG132-induced HSE-luciferase signal, confirmation, cell-based, NIH3T3, luminescence, dose retest (AID 2382).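 Note: NIH3T3 fibroblasts with HSF1-driven luciferase reporter stressed by proteasome inhibitor MG132; luminescence from HSF1-driven luciferase expression after 8 hours of MG132 stress.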 In kind it is functional.

Experiment [2] can be described thus: intracellular Trypanosoma cruzi inhibitors in host cells – cell-based, plate reader, cherry-pick samples, set 3, dose response (AID 651818).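 Note: compounds incubated with infected cells for about four days.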 The class given is functional.
A further experiment has as its target Cytochrome P450 3A4 (Homo sapiens, UniProt P08684). The note with it: Potency.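 Note: confirmatory qHTS run detecting inhibitors and substrates of CYP3A4.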
Experiment [3] has as its target T2, Rac GTPase-activating protein 1 (Homo sapiens, UniProt Q9H0H5).
T2 sequence (Q9H0H5 whole entry): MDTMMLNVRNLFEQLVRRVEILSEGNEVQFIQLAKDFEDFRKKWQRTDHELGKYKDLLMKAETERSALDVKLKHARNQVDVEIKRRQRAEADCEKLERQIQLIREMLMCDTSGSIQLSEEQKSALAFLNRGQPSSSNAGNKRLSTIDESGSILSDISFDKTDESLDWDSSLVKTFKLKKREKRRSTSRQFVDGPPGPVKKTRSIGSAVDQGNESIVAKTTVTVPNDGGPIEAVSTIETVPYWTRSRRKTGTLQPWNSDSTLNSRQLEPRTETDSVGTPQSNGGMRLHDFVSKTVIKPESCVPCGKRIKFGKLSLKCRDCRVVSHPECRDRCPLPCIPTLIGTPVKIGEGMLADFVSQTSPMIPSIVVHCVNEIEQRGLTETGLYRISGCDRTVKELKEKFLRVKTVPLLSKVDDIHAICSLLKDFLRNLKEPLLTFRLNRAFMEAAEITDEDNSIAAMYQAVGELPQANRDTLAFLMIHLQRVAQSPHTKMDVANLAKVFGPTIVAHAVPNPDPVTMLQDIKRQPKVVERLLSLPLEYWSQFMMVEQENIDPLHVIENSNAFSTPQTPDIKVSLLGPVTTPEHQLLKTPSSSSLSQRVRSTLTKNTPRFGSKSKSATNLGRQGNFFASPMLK
The experiment is described as follows: MgcRacGAP GTPase-activating activity inhibitors, confirmation, biochemical, ADP Hunter fluorescence, primary and confirmatory (AID 624330). In kind it is functional.

In experiment [4] the target is FAD-linked sulfhydryl oxidase ALR (Homo sapiens, UniProt P55789). Briefly: inhibitors of human ALR sulfhydryl oxidase, dose response, biochemical, H2O2 detection, luminescence, cherry-pick (AID 493248).
Sequence of FAD-linked sulfhydryl oxidase ALR (P55789 whole entry, the tested form may be a part): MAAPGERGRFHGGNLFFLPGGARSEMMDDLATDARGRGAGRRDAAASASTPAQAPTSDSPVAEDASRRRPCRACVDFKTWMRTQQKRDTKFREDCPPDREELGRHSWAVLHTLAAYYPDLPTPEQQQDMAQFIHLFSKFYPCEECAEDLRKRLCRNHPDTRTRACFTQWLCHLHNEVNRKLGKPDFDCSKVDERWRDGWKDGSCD
The nature of experiment [5]: off-target signal loss in HeLa-CEM21 co-culture – HeLa F-luc CTL cells, cherry-picked, counter-screen for HIV-1 Env fusion inhibitor project, dose response (AID 652040).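 Note: potency for signal decrease marking cytotoxic or nonspecific inhibition.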 In kind it is functional, cell-based.
The nature of experiment [6]: inhibitors of clade B AD8 Env fusion, dose response, cell-based, cherry-pick (AID 652062).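 Note: luciferase signal from cell-cell fusion driven by HIV-1 clade B AD8 Env; potency is for inhibitors of fusion seen as a drop in luminescence.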 The class given is functional.
Experiment [7] in a line: ZM109 Env clade C HIV-1 fusion inhibitors, dose response, HeLa effector, CEM target cells, luciferase, cherry-pick (AID 652058). In kind it is functional, cell-based.
A short description of experiment [8]: inhibitors of HIV Env-driven cell fusion, dose response, cherry-pick (AID 652057). The class given is functional, cell-based.
The target of another experiment is Large T antigen (Simian virus 40, UniProt P03070). The class given is functional, Betapolyomavirus macacae.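 Note: Confirmatory-stage PubChem screen for compounds that inhibit SV40 T antigen.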
Sequence of Large T antigen (P03070 whole entry): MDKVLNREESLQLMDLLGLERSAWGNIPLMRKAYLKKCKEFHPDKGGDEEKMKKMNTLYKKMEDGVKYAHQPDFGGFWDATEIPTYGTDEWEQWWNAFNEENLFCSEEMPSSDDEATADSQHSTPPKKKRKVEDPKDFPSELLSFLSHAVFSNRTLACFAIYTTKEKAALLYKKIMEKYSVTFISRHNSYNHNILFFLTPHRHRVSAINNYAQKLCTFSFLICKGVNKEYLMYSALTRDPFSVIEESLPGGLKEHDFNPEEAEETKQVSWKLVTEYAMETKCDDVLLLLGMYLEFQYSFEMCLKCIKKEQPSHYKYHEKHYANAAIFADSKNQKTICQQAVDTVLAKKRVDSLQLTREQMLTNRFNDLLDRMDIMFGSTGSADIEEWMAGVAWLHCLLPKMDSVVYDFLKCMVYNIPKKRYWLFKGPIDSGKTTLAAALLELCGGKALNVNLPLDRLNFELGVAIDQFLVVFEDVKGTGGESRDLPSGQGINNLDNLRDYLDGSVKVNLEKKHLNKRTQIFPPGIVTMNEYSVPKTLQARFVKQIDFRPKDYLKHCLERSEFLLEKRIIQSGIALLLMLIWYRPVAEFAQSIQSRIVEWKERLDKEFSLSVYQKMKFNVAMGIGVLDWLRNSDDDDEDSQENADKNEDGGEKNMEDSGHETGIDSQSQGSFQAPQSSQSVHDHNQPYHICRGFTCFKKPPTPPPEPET
The target in experiment [9] is T3, RNA-binding protein pos-1 (Caenorhabditis elegans, UniProt G5EF15).
T3 sequence (G5EF15 whole entry): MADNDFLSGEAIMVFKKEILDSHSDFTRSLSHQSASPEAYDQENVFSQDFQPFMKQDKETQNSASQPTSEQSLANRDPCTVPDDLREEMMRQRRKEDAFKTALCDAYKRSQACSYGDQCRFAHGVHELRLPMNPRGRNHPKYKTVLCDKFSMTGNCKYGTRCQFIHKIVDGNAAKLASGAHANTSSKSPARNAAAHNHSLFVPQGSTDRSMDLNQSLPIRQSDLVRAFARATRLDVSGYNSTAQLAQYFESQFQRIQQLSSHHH
The experiment is described as follows: inhibitors of POS-1/mex-3 RNA binding, dose response, biochemical, fluorescence polarization (AID 1964).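 Note: purified POS-1 fused to maltose binding protein made in E. coli; potency of compounds blocking POS-1 binding to fluorescent RNA.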

Experiment [10] addresses T4, Zinc finger protein mex-5 (Caenorhabditis elegans, UniProt Q9XUB2).
T4 sequence (Q9XUB2 whole entry): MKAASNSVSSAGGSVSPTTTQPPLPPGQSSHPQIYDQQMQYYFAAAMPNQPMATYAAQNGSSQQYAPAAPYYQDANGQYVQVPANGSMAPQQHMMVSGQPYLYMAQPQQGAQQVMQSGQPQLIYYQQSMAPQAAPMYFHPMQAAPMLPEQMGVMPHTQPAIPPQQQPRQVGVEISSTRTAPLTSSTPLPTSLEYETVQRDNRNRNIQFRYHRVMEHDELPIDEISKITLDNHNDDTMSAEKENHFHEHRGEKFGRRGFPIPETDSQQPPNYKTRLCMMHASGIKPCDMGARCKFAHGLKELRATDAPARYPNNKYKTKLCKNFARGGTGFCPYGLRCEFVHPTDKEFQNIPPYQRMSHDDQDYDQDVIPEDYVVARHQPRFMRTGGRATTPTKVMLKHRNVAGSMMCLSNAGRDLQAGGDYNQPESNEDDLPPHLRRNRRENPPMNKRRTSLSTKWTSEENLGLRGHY
The experiment is described as follows: MEX-5/TCR-2 RNA interaction inhibitors, dose response, biochemical, C. elegans, fluorescence polarization (AID 1960).

Experiment [11] can be described thus: inhibitors of intracellular T. cruzi replication, confirmation, NIH3T3 host cells, beta-gal luminescence (AID 2044).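 Note: intracellular parasites grown in NIH/3T3 mouse fibroblasts as host cells; luminescent beta-galactosidase reporter signal from transgenic T. cruzi replicating inside host cells; inhibitors lower the luminescence signal.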 The class given is functional, cell-based.
Experiment [12] can be described thus: cytotoxicity toward NIH3T3 fibroblasts, dose response, counter-screen, cell-based, ATP luminescence, mouse fibroblasts (AID 2010).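 Note: cells exposed to compound for about 90 hours before reading.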 The class given is functional.

Activity calls are given as the source filed them.

Sequence of Cytochrome P450 3A4 (P08684 whole entry): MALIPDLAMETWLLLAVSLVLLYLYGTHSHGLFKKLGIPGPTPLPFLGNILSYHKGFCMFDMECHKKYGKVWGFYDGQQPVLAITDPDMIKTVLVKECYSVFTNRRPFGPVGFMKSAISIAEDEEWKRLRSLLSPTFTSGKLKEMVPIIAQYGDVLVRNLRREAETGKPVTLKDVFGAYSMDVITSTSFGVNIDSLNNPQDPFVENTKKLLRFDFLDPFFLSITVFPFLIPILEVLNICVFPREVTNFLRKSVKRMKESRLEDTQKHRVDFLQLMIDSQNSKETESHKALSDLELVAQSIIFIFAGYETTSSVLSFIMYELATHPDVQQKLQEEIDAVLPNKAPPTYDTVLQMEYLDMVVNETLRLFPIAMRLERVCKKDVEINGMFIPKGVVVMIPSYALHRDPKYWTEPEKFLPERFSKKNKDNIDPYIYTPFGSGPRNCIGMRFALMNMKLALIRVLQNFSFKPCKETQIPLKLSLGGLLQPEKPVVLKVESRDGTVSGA

Consider `CCCCCn1c(SCC(=O)CC(=O)OCC)nc2cc(C(=O)N3CCC(C(N)=O)CC3)ccc2c1=O`, for which the EC50 in experiment [1] is given as > 195 µM (not active).
Consider `C[C@@H]1CN([C@@H](C)CO)C(=O)c2cccc(NC(=O)C3CCCCC3)c2O[C@H]1CN(C)CC1CC1`, for which the AC50 in experiment [2] is 8.92 µM (active).
In the case of `CC(=O)c1c(O)c(C)c(O)c2c1OC1=CC(=O)C(C(C)=O)C(=O)[C@@]12C` (stereo not given in full), the AC50 at Cytochrome P450 3A4 was 12.6 µM (inconclusive).
On to `Nc1ccc2[nH]c(C3CCCCC3)nc2c1`, for which, in [3], the IC50 was 70.2 µM (active). Also, the AC50 in experiment [4] was 1.13 µM (active).
For the molecule `CCC1=C(OC(=O)N(CC)CC)N2C(=O)O/C(=N\CCOC)[C@]2(C)[C@H]2C1=CC[C@H]1C(=O)N(C)C(=O)[C@H]12`, the AC50 on Cytochrome P450 3A4 is 10 µM (inconclusive).
In the case of `O=C(CCc1ccccc1)Nc1cccc([N+](=O)[O-])c1`, in [1], the EC50 is on record as > 195 µM (not active).
Turning to `COc1ccc2c(c1)OCC(Cc1ccc(OC)c(OC(C)=O)c1)C2=O` (stereo not given) [DEOXYSAPPANONE B 7,3'-DIMETHYL ETHER ACETATE], the AC50 at Cytochrome P450 3A4 is 39.8 µM (inconclusive).
Consider `Cc1n[nH]c2ncc(C(=O)c3ccccc3O)cc12`, for which the AC50 in [5] is 2.78 µM (active); in [6], 4.64 µM (active); in experiment [7] it was 0.606 µM (active); in experiment [8], 6.5 µM (active).
`Cc1cc(OCC(=O)NCCc2ccc(S(N)(=O)=O)cc2)c2c(C)cc(=O)oc2c1`: in experiment [1], the EC50 is > 195 µM (not active).
As to `CN1CC(CO)=C[C@H]2c3cccc4[nH]cc(c34)C[C@H]21`, the AC50 on Cytochrome P450 3A4 was 39.8 µM (inconclusive).
Take `COc1cc(/C=N/N2C(=O)C3C4C=CC(CC4)C3C2=O)ccc1O` (stereo not given): the IC50 at Large T antigen is 10.1 µM (active).
Regarding `Cc1cc(O)nc(N/N=C/c2c[nH]c3ccccc23)n1`, on Large T antigen, the IC50 is 24.6 µM (active).
For `C=CCOC(=O)C(C(=O)CC)C(NC(=O)OC)c1ccc(F)cc1` (stereo not given), at Cytochrome P450 3A4, the AC50 was 3.16 µM (inconclusive).
For the molecule `COC(=O)c1ccc(C23CC4(C2)[C@H](CN(Cc2ccc(C(F)(F)F)cc2)[C@@H]4c2ccccc2)C3c2ccccc2)cc1` (stereo not given in full), the AC50 at Cytochrome P450 3A4 is 25.1 µM (inconclusive). In addition, the EC50 in experiment [9] and in experiment [10] was > 300 µM (not active) each time.
On to `C[C@H]1CN([C@@H](C)CO)C(=O)Cc2cc(NC(=O)Cc3cn(C)c4ccccc34)ccc2O[C@H]1CN(C)Cc1ccc(Oc2ccccc2)cc1`, for which the AC50 in experiment [2] is 5.58 µM (active).
On to `CCCc1nc(-c2ccccc2O)n(-c2ccccc2)n1`, for which the EC50 in [1] is reported as > 195 µM (not active).
Consider `C[C@H](CO)N1C[C@H](C)[C@H](CN(C)CC2CC2)Oc2c(NC(=O)Nc3ccc(C(F)(F)F)cc3)cccc2C1=O`, for which the AC50 in [2] is 2.66 µM (active).
With `CC(C)CNC(=O)c1ccccc1NC(=O)c1ccccc1N(C)S(=O)(=O)c1ccccc1`, the AC50 in experiment [5] is 1.62 µM (active); in experiment [6] it was 0.261 µM (active); in experiment [7] it was 0.937 µM (active); in [8], 0.961 µM (active).
`C[C@H]1CN([C@@H](C)CO)C(=O)Cc2cc(NS(=O)(=O)c3ccc(F)cc3)ccc2O[C@@H]1CN(C)Cc1ccc(-c2ccccc2)cc1`: the AC50 in [2] was 3.21 µM (active).
For `Cc1ccc(S(=O)(=O)N(C)C[C@@H]2Oc3ncc(Br)cc3C(=O)N([C@@H](C)CO)C[C@@H]2C)cc1`, the figures for the AC50 in experiment [6], in experiment [7] and in experiment [8] were 9.72 µM (active), 3.56 µM (active) and 4.36 µM (active), respectively.
Turning to `COc1cc2ccc(=O)oc2c2ccoc12` [SPHONDIN], on Cytochrome P450 3A4, the AC50 is 3.98 µM (inconclusive).
Consider `CN(Cc1ccc(Cl)cc1Cl)C(=O)c1cccc(S(=O)(=O)N2CCN(c3ccccc3)CC2)c1`, for which the AC50 is > 70 µM (inactive) in experiment [5], 43 µM (active) in experiment [6], 36 µM (active) in experiment [7] and 23.9 µM (active) in [8]. For the same molecule, the EC50 is 1.64 µM (active) in experiment [11] and > 60 µM (not active) in experiment [12].
For `c1cnc2ccc(C(c3nnnn3C3CCCCC3)N3CCCCC3)cc2c1` (stereo not given), the AC50 in experiment [5] was 6.97 µM (active); in experiment [6] it was 10.1 µM (active); in [7], 14.9 µM (active); in experiment [8], 4.05 µM (active).
As to `C[C@H]1CN([C@@H](C)CO)C(=O)Cc2cc(N(C)C)ccc2O[C@H]1CN(C)Cc1ccc(Oc2ccccc2)cc1`, the AC50 in experiment [2] is 1.57 µM (active).
On to `COc1ccc(-c2coc3cc(OC(C)=O)cc(OC(C)=O)c3c2=O)cc1`, for which the AC50 on Cytochrome P450 3A4 was 31.6 µM (inconclusive).
Regarding `COc1ccc(S(=O)(=O)Nc2ccc3c(c2)C(=O)N([C@@H](C)CO)C[C@H](C)[C@H](CN(C)Cc2ccc(C(F)(F)F)cc2)O3)cc1`, in [2], the AC50 was 4.07 µM (active).
As to `COC(=O)/C=C/C(=O)Nc1ccc(O)c(Cl)c1`, the IC50 on Large T antigen was 11.7 µM (active).
As for `C[C@H]1CN([C@@H](C)CO)C(=O)Cc2cc(NS(=O)(=O)c3ccccc3)ccc2O[C@H]1CN(C)Cc1ccc(C(=O)Nc2ccccc2N)cc1`, in [2], the AC50 is 3.55 µM (active).
As for `Oc1ccc(Nc2nc(Cl)nc(NCc3ccco3)n2)cc1`, the IC50 at Large T antigen was 10.7 µM (active).
`CCCn1c(C)nc2c(NC(C)CCCN(CC)CC)nc(C)nc21` (stereo not given): the AC50 on Cytochrome P450 3A4 is 25.1 µM (inconclusive).
With `CCOc1ccc(NCc2cccn2-c2nnc(N3CCC(C(=O)NCCCN4CCCCC4)CC3)s2)cc1`, in experiment [3], the IC50 is 64.7 µM (active). Moreover, the EC50 in [1] is given as > 195 µM (not active).
On to `COc1cc(/C=C/C(=O)OCC(=O)Nc2ccc(S(N)(=O)=O)cc2)ccc1O`, for which the IC50 on Large T antigen was 20 µM (active).
With `Cn1cc(CN2CCc3ccccc3C2)c2ccccc21`, the EC50 in experiment [1] is on record as > 195 µM (not active).
On to `Cc1cc(O)c(C=O)c2c1C(=O)Oc1c(COC(=O)/C=C/C(=O)O)c(O)c(C(=O)O)c(C)c1O2` [FUMARPROTOCETRARIC ACID], for which the AC50 at Cytochrome P450 3A4 was 39.8 µM (inconclusive).
Take `COc1ccc(NC(=O)Nc2ccc3c(c2)CC(=O)N([C@@H](C)CO)C[C@H](C)[C@H](CN(C)Cc2ccc(-c4ccccc4)cc2)O3)cc1`: in experiment [2], the AC50 is 3.37 µM (active).
